Consider nine compounds from patent US9445594B2, “Molecules having certain pesticidal utilities, intermediates, compositions, and processes, related thereto” (priority 2014, dated 2016).

Type in all cases: in vivo
For data set [1], the system named is Beet Armyworm (Spodoptera exigua, LAPHEG) ("BAW"). The data set can be described thus: Bioassays on BAW, 128-well diet tray assay. The following applies: 168 h, second instar larvae, 50 μg/cm^2 on artificial diet, 25° C., five to seven days, average of eight wells, read-out: BAW % Control (or Mortality) rating. Here is the method:
(§1) Certain molecules disclosed in this document were tested against BAW, CEW, and CL using procedures described in the following examples. In the reporting of the results, the “BAW, CEW, & CL Rating Table” was used (See Table Section).
Bioassays on BAW were conducted using a 128-well diet tray assay. one to five second instar BAW larvae were placed in each well (3 mL) of the diet tray that had been previously filled with 1 mL of artificial diet to which 50 μg/cm^2 of the test compound (dissolved in 50 μL of 90:10 acetone-water mixture) had been applied (to each of eight wells) and then allowed to dry. Trays were covered with a clear self-adhesive cover and held at 25° C., 14:10 light-dark for five to seven days. Percent mortality was recorded for the larvae in each well; activity in the eight wells was then averaged. The results are indicated in the table entitled “Table ABC: Biological Results” (See Table Section).

Data set [2] has as its system Yellow Fever Mosquito (Aedes aegypti, AEDSAE) ("YFM"). The data set can be described thus: Bioassays on YFM, 96-well plate larval assay. As to conditions: about 1 day-old larvae, from 4000 ppm DMSO master plate diluted, room temperature, scored after 3 days. How it is done: Certain molecules disclosed in this document were tested against YFM using procedures described in the following paragraph. In the reporting of the results, the “YFM Rating Table” was used (See Table Section).
Master plates containing 400 μg of a molecule dissolved in 100 μL of dimethyl sulfoxide (DMSO) (equivalent to a 4000 ppm solution) are used. A master plate of assembled molecules contains 15 μL per well. To this plate, 135 μL of a 90:10 water:acetone mixture is added to each well. A robot (Biomek® NXP Laboratory Automation Workstation) is programmed to dispense 15 μL aspirations from the master plate into an empty 96-well shallow plate (“daughter” plate). There are 6 reps (“daughter” plates) created per master. The created daughter plates are then immediately infested with YFM larvae.
The day before plates are to be treated, mosquito eggs are placed in Millipore water containing liver powder to begin hatching (4 g. into 400 mL). After the daughter plates are created using the robot, they are infested with 220 μL of the liver powder/larval mosquito mixture (about 1 day-old larvae). After plates are infested with mosquito larvae, a non-evaporative lid is used to cover the plate to reduce drying. Plates are held at room temperature for 3 days prior to grading. After 3 days, each well is observed and scored based on mortality.

The test system of data set [3] is Cabbage Looper (Trichoplusia ni, TRIPNI) ("CL"). The data set can be described thus: Bioassays on CL, 128-well diet tray assay. As to conditions: 168 h, second instar larvae, 50 μg/cm^2 on artificial diet, 25° C., five to seven days, average of eight wells, read-out: CL % Control (or Mortality) rating. How it is done: as §1
Bioassays on CL were conducted using a 128-well diet tray assay. one to five second instar CL larvae were placed in each well (3 mL) of the diet tray that had been previously filled with 1 mL of artificial diet to which 50 μg/cm^2 of the test compound (dissolved in 50 μL of 90:10 acetone-water mixture) had been applied (to each of eight wells) and then allowed to dry. Trays were covered with a clear self-adhesive cover and held at 25° C., 14:10 light-dark for five to seven days. Percent mortality was recorded for the larvae in each well; activity in the eight wells was then averaged. The results are indicated in the table entitled “Table ABC: Biological Results” (See Table Section).

As a reminder, the mortality is the percentage killed. Regarding `O=C(Nc1ccc(-c2ncn(-c3ccc(OC(F)(F)C(F)(F)F)cc3)n2)cc1)Nc1ccccc1OC(F)(F)F` [F1, 1-(4-(1-(4-(Perfluoroethoxy)phenyl)-1H-1,2,4-triazol-3-yl)phenyl)-3-(2-(trifluoromethoxy)phenyl)urea], the mortality at 50 µg/cm2 in data set [1] was 0%; in data set [3] it was 50 to 100%. In data set [2], the “YFM % Control (or Mortality) rating” value was “D (No activity noticed in this bioassay)”.
On the same counts, the results for `O=C(NCCCCc1ccc(-c2ncn(-c3ccc(OC(F)(F)F)cc3)n2)cc1)Nc1cccc(Cl)c1` [F93, 1-(3-Chlorophenyl)-3-(4-(4-(1-(4-(trifluoromethoxy)phenyl)-1H-1,2,4-triazol-3-yl)phenyl)butyl)urea] are 0%, 50 to 100% and “D (No activity noticed in this bioassay)”.
For `CSc1ccccc1-c1cccnc1NC(=O)Nc1ccc(-c2ncn(-c3ccc(OC(F)(F)F)cc3)n2)cc1` [F59, 1-(3-(2-(Methylthio)phenyl)pyridin-2-yl)-3-(4-(1-(4-(trifluoromethoxy)phenyl)-1H-1,2,4-triazol-3-yl)phenyl)urea], in that order: 50 to 100%, 50 to 100% and “D (No activity noticed in this bioassay)”.
For `CC(C)c1ccccc1NC(=O)Nc1ccc(-c2ncn(-c3ccc(OC(F)(F)F)cc3)n2)cc1` [F33, 1-(2-Isopropylphenyl)-3-(4-(1-(4-(trifluoromethoxy)phenyl)-1H-1,2,4-triazol-3-yl)phenyl)urea], in that order: 50 to 100%, 50 to 100% and “B (More than 0 - Less than 80)”.
Turning to `CCOc1cccc(NC(=O)Nc2ccc(-c3ncn(-c4ccc(OC(F)(F)F)cc4)n3)cc2)c1` [F39, 1-(3-ethoxyphenyl)-3-(4-(1-(4-(trifluoromethoxy)phenyl)-1H-1,2,4-triazol-3-yl)phenyl)urea], the mortality at 50 µg/cm2 in data set [1] is 0%; in data set [3], 50 to 100%. Besides, in data set [2], the “YFM % Control (or Mortality) rating” value is on record as “D (No activity noticed in this bioassay)”.
As to `COc1cccc(NC(=O)NCc2ccc(-c3ncn(-c4ccc(OC(F)(F)F)cc4)n3)cc2)c1` [F107, 1-(3-Methoxyphenyl)-3-(4-(1-(4-(trifluoromethoxy)phenyl)-1H-1,2,4-triazol-3-yl)benzyl)urea], the mortality at 50 µg/cm2 in data set [1] and in data set [3] was 0% each time. For the same compound, in data set [2], the “YFM % Control (or Mortality) rating” value is “B (More than 0 - Less than 80)”.
Consider `CC(C)c1ccccc1NC(=S)NCc1ccc(-c2ncn(-c3ccc(OC(F)(F)F)cc3)n2)cc1` [F45, 1-(2-isopropylphenyl)-3-(4-(1-(4-(trifluoromethoxy)phenyl)-1H-1,2,4-triazol-3-yl)benzyl)thiourea], for which the mortality at 50 µg/cm2 in data set [1] was 0 to 50%; in data set [3] it was 50 to 100%. Also, the “YFM % Control (or Mortality) rating” value in data set [2] was “A (80-100)”.
Consider `CC(C)c1ccccc1NC(=O)NCCCc1ccc(-c2ncn(-c3ccc(OC(F)(F)F)cc3)n2)cc1` [F78, 1-(2-Isopropylphenyl)-3-(3-(4-(1-(4-(trifluoromethoxy)phenyl)-1H-1,2,4-triazol-3-yl)phenyl)propyl)urea], for which the mortality at 50 µg/cm2 in data set [1] and in data set [3] was 50 to 100% in each case. Besides, in data set [2], the “YFM % Control (or Mortality) rating” value is on record as “A (80-100)”.
For the compound `FC(F)(F)Oc1ccc(-n2cnc(-c3ccc(NC(=S)Nc4ncccc4-c4cccnc4)cc3)n2)cc1` [F56, 1-([3,3′-Bipyridin]-2-yl)-3-(4-(1-(4-(trifluoromethoxy)phenyl)-1H-1,2,4-triazol-3-yl)phenyl)thiourea], the mortality at 50 µg/cm2 in data set [1] was in the range of 0 to 50%; in data set [3], 50 to 100%. Further, in data set [2], the “YFM % Control (or Mortality) rating” value is recorded as “D (No activity noticed in this bioassay)”.
